Reference: ChEMBL document CHEMBL1126213, “Synthesis and biological activity of a 5,6-substituted teleocidin” (Bioorg Med Chem Lett, 1992)

Target: Protein kinase C, PKC; classical/novel
Experiment: Binding to PKC in 3[H]-[…] assay
Assay type: protein assay

Compound `CC(C)[C@@H]1Nc2c3c(cc4[nH]cc(c24)C[C@@H](CO)NC1=O)C(C)(C)CCC3(C)C` has an IC50 of 400 nM.
